Test results from patent publication US8802674B2, “Aminopyrimidine derivatives as LRRK2 modulators” (Genentech, Inc., priority 2011, dated 2014).

Target: LRRK2 (Homo sapiens (Human), UniProt Q5S007, G2019S)
Assay: In Vitro LRRK2 LabChip Assay
Assay type: biochemical
Method in brief: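 Potency (Ki in μM, IC50 or % inhibition) derived from capillary-electrophoresis separation of phospho- and unphosphorylated fluorescent peptide, with Ki fitted by a tight-binding model.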

Sequence of LRRK2 (Q5S007 970-2527 G2019S limits assumed): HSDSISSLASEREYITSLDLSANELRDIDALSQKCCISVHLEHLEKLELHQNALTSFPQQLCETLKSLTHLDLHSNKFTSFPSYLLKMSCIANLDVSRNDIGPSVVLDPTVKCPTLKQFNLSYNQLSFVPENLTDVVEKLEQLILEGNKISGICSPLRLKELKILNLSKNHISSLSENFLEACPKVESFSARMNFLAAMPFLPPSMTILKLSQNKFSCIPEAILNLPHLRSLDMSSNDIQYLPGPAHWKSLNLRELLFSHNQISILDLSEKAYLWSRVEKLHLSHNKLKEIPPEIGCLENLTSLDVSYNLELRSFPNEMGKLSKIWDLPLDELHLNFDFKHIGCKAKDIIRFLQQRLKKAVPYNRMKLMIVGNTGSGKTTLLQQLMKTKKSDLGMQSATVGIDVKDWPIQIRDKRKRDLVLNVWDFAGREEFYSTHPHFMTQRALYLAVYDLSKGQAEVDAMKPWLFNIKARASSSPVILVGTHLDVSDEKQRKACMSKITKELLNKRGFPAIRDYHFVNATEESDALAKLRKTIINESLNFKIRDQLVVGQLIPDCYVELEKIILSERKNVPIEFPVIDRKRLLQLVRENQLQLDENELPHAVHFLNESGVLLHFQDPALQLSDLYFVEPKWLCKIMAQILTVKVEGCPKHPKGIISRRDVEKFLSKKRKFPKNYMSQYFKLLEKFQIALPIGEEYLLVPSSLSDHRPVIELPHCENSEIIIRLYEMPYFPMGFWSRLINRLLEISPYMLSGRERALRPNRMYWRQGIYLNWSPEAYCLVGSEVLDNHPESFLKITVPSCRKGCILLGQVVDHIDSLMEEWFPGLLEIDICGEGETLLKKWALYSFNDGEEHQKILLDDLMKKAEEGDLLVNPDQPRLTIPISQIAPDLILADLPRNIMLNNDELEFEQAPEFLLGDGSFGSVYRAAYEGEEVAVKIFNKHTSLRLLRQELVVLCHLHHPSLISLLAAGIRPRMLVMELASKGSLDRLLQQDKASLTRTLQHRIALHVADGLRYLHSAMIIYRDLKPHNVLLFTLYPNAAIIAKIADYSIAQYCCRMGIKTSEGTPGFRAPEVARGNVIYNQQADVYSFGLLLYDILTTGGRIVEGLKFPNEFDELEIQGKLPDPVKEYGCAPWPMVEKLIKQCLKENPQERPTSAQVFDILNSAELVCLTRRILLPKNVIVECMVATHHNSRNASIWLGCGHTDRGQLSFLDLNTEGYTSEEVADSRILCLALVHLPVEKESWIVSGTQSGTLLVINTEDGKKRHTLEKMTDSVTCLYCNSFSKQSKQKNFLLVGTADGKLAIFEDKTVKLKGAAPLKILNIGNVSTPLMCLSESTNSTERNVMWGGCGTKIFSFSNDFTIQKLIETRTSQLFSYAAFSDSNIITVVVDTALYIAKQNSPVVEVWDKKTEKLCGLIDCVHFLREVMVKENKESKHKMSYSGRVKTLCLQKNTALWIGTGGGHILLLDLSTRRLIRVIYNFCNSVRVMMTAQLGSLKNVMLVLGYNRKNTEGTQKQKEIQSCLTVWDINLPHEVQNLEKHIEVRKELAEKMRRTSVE

| SMILES | Ki (Table 4) [nM] | further results |
| --- | --- | --- |
| CNc1nc(Nc2cc(OC)c(C(=O)N3CCOCC3)cc2Cl)ncc1C(F)(F)F [Example 296, [5-Chloro-2-methoxy-4-(4-methylamino-5-trifluoromethyl-pyrimidin-2-ylamino)-phenyl]-morpholin-4-yl-methanone] |  | Ki (Table 6): 2 nM |
| CNc1nc(Nc2cc(OC)c(C(=O)NCCCN)cc2Cl)ncc1Cl [Example 228, N-(3-Amino-propyl)-5-chloro-4-(5-chloro-4-methylamino-pyrimidin-2-ylamino)-2-methoxy-benzamide] | 3.8 |  |
| COc1cc(C(=O)N2CCOCC2)ccc1Nc1ncc(C#N)c(OC)n1 [Example 315, 4-Methoxy-2-[2-methoxy-4-(morpholine-4-carbonyl)-phenylamino]-pyrimidine-5-carbonitrile] |  | Ki (Table 7): 138 nM |
| CNc1nc(Nc2ccc(C(=O)N3CCOCC3)cc2OC)ncc1C(C)=O [Example 183, l-{2-[2-Methoxy-4-(morpholine-4-carbonyl)-phenylamino]-4-methylamino-pyrimidin-5-yl}-ethanone] | 68.2 |  |
| COc1cc(C(=O)N2CCOCC2)ccc1Nc1ncc(Cl)c(OC2CCOCC2)n1 [Example 264, {4-[5-Chloro-4-(tetrahydro-pyran-4-yloxy)-pyrimidin-2-ylamino]-3-methoxy-phenyl}-morpholin-4-yl-methanone] |  | Ki (Table 5): 33 nM |
| CNc1nc(Nc2ccc(C(=O)N3CCCC3)cc2OC)ncc1C(F)(F)F [Example 274, [3-Methoxy-4-(4-methylamino-5-trifluoromethyl-pyrimidin-2-ylamino)-phenyl]-pyrrolidin-1-yl-methanone] |  | Ki (Table 6): 4.1 nM |
| CNC(=O)c1cc(OC)c(Nc2ncc(C(F)(F)F)c(NC)n2)cc1F [Example 180, 2-Fluoro-5-methoxy-N-methyl-4-(4-methylamino-5-trifluoromethyl-pyrimidin-2-ylamino)-benzamide] | 4.7 |  |
| CNc1nc(Nc2cc(OC)c(C(=O)N(C)CCO)cc2Cl)ncc1Cl [Example 163, 5-Chloro-4-(5-chloro-4-methylamino-pyrimidin-2-ylamino)-N-(2-hydroxy-ethyl)-2-methoxy-N-methyl-benzamide] | 7.8 |  |
| CCNc1nc(Nc2cc(OC)c(C(=O)N3CCOCC3)cc2F)ncc1C(F)(F)F [Example 238, (4-(4-(ethylamino)-5-(trifluoromethyl)pyrimidin-2-ylamino)-5-fluoro-2-methoxyphenyl) (morpholino) methanone] | 1.4 |  |
| COc1cc(Nc2ncc(Cl)c(OC)n2)c(Cl)cc1C(=O)N1CCOCC1 [Example 260, [5-Chloro-4-(5-chloro-4-methoxy-pyrimidin-2-ylamino)-2-methoxy-phenyl]-morpholin-4-yl-methanone] |  | Ki (Table 5): 47 nM |
| CNc1nc(Nc2ccc(C(=O)N3CCOCC3)cc2OC2COC2)ncc1Cl [Example 284, [4-(5-Chloro-4-methylamino-pyrimidin-2-ylamino)-3-(oxetan-3-yloxy)-phenyl]-morpholin-4-yl-methanone] |  | Ki (Table 6): 12.8 nM |
| CNc1nc(Nc2cc(OC)c(C(=O)N3CCC(N(C)C)CC3)cc2Cl)ncc1Cl [Example 151, [5-Chloro-4-(5-chloro-4-methylamino-pyrimidin-2-ylamino)-2-methoxy-phenyl]-(4-dimethylamino-piperidin-1-yl)-methanone] | 2.8 |  |
| CNc1nc(Nc2ccc(C(=O)N(C)CCOC)cc2OC)ncc1C(F)(F)F [Example 301, 3-Methoxy-N-(2-methoxy-ethyl)-N-methyl-4-(4-methylamino-5-trifluoromethyl-pyrimidin-2-ylamino)-benzamide] |  | Ki (Table 6): 5.1 nM |
| CNc1nc(Nc2ccc(C(=O)NC3CCN(C)CC3)cc2OC)ncc1C(F)(F)F [Example 282, 3-Methoxy-4-(4-methylamino-5-trifluoromethyl-pyrimidin-2-ylamino)-N-(1-methyl-piperidin-4-yl)-benzamide] |  | Ki (Table 6): 0.6 nM |
| COCCNc1nc(Nc2ccc(C(=O)N3CCOCC3)cc2OCC(F)(F)F)ncc1Cl [Example 109, [4-[5-Chloro-4-(2-methoxy-ethylamino)-pyrimidin-2-ylamino]-3-(2,2,2-trifluoro-ethoxy)-phenyl]-morpholin-4-yl-methanone] | 9.6 |  |
| CCNc1nc(Nc2cc(F)c(C(=O)N(C)C)cc2OC)ncc1C#N [Example 240, 4-(5-Cyano-4-ethylamino-pyrimidin-2-ylamino)-2-fluoro-5-methoxy-N,N-dimethyl-benzamide] | 9.8 |  |
| CNc1nc(Nc2ccc(C(=O)N3CCN(C4CCC4)CC3)cc2OC)ncc1Br [Example 74] | 2.3 |  |
| CNc1nc(Nc2ccc(C(=O)N3CC4CCC(C3)O4)cc2OC)ncc1C(F)(F)F [Example 272, [3-Methoxy-4-(4-methylamino-5-trifluoromethyl-pyrimidin-2-ylamino)-phenyl]-(8-oxa-3-aza-bicyclo[3.2.1]oct-3-yl)-methanone] |  | Ki (Table 6): 1.7 nM |
| CCNc1nc(Nc2cc(F)c(C(=O)N3CCC[C@H]3COC)cc2OC)ncc1C(F)(F)F [Example 306, [4-(4-Ethylamino-5-trifluoromethyl-pyrimidin-2-ylamino)-2-fluoro-5-methoxy-phenyl]-((S)-2-methoxymethyl-pyrrolidin-1-yl)-methanone] |  | Ki (Table 6): 0.6 nM |
| CNc1nc(Nc2ccc(C(=O)N3CCOCC3)cc2OC2CCC2)ncc1C(F)(F)F [Example 269, [3-Cyclobutoxy-4-(4-methylamino-5-trifluoromethyl-pyrimidin-2-ylamino)-phenyl]-morpholin-4-yl-methanone] |  | Ki (Table 6): 2.5 nM |
| CNc1nc(Nc2ccc(C(=O)N3CCOCC3)cc2O)ncc1Cl [Example 82, [4-(5-Chloro-4-methylamino-pyrimidin-2-ylamino)-3-hydroxy-phenyl]-morpholin-4-yl-methanone] | 28.9 |  |
| CNc1nc(Nc2ccc(C(=O)N3CCOCC3)cc2OC(C)C)ncc1Cl [Example 79, [4-(5-Chloro-4-methylamino-pyrimidin-2-ylamino)-3-isopropoxy-phenyl]-morpholin-4-yl-methanone] | 15.6 |  |

Second part, led by results:

| Ki (Table 4) [nM] | SMILES | further results |
| --- | --- | --- |
| 4.2 | CNc1nc(Nc2ccc(C(=O)NCC3CC3)cc2OC)ncc1C#N [Example 195, 4-(5-Cyano-4-methylamino-pyrimidin-2-ylamino)-N-cyclopropylmethyl-3-methoxy-benzamide] |  |
| 2 | [2H]C1([2H])OCCN(C(=O)c2ccc(Nc3ncc(Br)c(OC)n3)c(OC)c2)[C@@H]1C [Example 107, [4-(5-Bromo-4-methoxy-pyrimidin-2-ylamino)-3-methoxy-phenyl]-((R)-2,2-di-deutero-3-methyl-morpholin-4-yl)-methanone] |  |
| 4.6 | CNc1nc(Nc2ccc(C(=O)NC(C)(C)C)cc2OC)ncc1C#N [Example 206, N-tert-Butyl-4-(5-cyano-4-methylamino-pyrimidin-2-ylamino)-3-methoxy-benzamide] |  |
| 5.4 | CCN(C(=O)c1ccc(Nc2ncc(C#N)c(NC)n2)c(OC)c1)C(C)C [Example 207, 4-(5-Cyano-4-methylamino-pyrimidin-2-ylamino)-N-ethyl-N-isopropyl-3-methoxy-benzamide] |  |
| 10.4 | COc1cc(C(=O)N2CCOCC2)ccc1Nc1ncc(Cl)c(OC)n1 [Example 61, [4-(5-Chloro-4-methoxy-pyrimidin-2-ylamino)-3-methoxy-phenyl]-morpholin-4-yl-methanone] |  |
| 6.9 | COCCNc1nc(Nc2cc(F)c(C(=O)N3CCOCC3)cc2OC)ncc1Br [Example 185, {4-[5-Bromo-4-(2-methoxy-ethylamino)-pyrimidin-2-ylamino]-2-fluoro-5-methoxy-phenyl}-morpholin-4-yl-methanone] |  |
| 6.1 | CNc1nc(Nc2ccc(C(=O)N3CCC(O)CC3)cc2C)ncc1Cl [Example 233, (4-(5-chloro-4-(methylamino)pyrimidin-2-ylamino)-3-methylphenyl)(4-hydroxypiperidin-1-yl)methanone] |  |
| 3.5 | CCNc1nc(Nc2cc(OC)c(C(=O)NC3CC3)cc2Cl)ncc1C(F)(F)F [Example 148, 5-Chloro-N-cyclopropyl-4-(4-ethylamino-5-trifluoromethyl-pyrimidin-2-ylamino)-2-methoxy-benzamide] |  |
| 2 | CNc1nc(Nc2ccc(C(=O)N3CC4CCC(C3)O4)cc2OC)ncc1Cl [Example 63, [4-(5-Chloro-4-methylamino-pyrimidin-2-ylamino)-3-methoxy-phenyl]-(8-oxa-3-aza-bicyclo[3.2.1]oct-3-yl)-methanone] |  |
| 2.4 | COc1cc(C(=O)N2CCOCC2)ccc1Nc1ncc(Cl)c(NC2(C)CCC2)n1 [Example 91, {4-[5-Chloro-4-(1-methyl-cyclobutylamino)-pyrimidin-2-ylamino]-3-methoxy-phenyl}-morpholin-4-yl-methanone] |  |
| 2.8 | CCNc1nc(Nc2ccc(C(=O)N3C[C@@H]4C[C@H]3CO4)c(F)c2OC)ncc1C(F)(F)F [Example 242, (1S,4S)-2-oxa-5-azabicyclo[2.2.1] heptan-5-yl(4-(4-(ethylamino)-5-(trifluoromethyl)pyrimidin-2-ylamino)-2-fluoro-3-methoxyphenyl) methanone] |  |
| 5.2 | CNc1nc(Nc2ccc(C(=O)N3CCC3)cc2OC)ncc1Cl [Example 16, Azetidin-1-yl-[4-(5-chloro-4-methylamino-pyrimidin-2-ylamino)-3-methoxy-phenyl]-methanone] |  |
| 1.8 | COc1cc(C(=O)N2CCOCC2)ccc1Nc1ncc(Cl)c(NCCC2CC2)n1 [Example 104, {4-[5-Chloro-4-(2-cyclopropyl-ethylamino)-pyrimidin-2-ylamino]-3-methoxy-phenyl}-morpholin-4-yl-methanone] |  |
| 13.9 | CNc1nc(Nc2cc(OC)c(C(=O)NC3(C#N)CC3)cc2Cl)ncc1Cl [Example 170, 5-Chloro-4-(5-chloro-4-methylamino-pyrimidin-2-ylamino)-N-(l-cyano-cyclopropyl)-2-methoxy-benzamide] |  |
| 3.8 | CNc1nc(Nc2ccc(C(=O)N3CCCC3C)cc2OC)ncc1Cl (centres unmarked) [Example 29, [4-(5-Chloro-4-methylamino-pyrimidin-2-ylamino)-3-methoxy-phenyl]-(2-methyl-pyrrolidin-1-yl)-methanone] |  |
| 7.4 | CNc1nc(Nc2ccc(C(=O)N3CCOCC3)cc2C)ncc1Cl [Example 232, (4-(5-chloro-4-(methylamino)pyrimidin-2-ylamino)-3-methylphenyl) (morpholino) methanone] |  |
